Measurements reported in publication PMC10079702, “Study of the inhibition effects on glutathione peroxidase immobilized on MNPs using a stopped-flow microfluidic system” (Analytical and Bioanalytical Chemistry, 2023).

Molecular target: T1, glutathione peroxidase (GPx) (Bos taurus, UniProt P00435)
T1 construct: gene GPX1; selenoprotein; EDC-coupled to magnetic nanoparticles for the assay
T1 sequence (P00435 1-205): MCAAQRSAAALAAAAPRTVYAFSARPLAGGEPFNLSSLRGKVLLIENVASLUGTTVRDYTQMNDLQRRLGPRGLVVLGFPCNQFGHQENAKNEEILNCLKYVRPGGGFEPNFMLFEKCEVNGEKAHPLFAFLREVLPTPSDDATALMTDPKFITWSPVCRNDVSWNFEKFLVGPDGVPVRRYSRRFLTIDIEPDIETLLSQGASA
Assay: stopped-flow microfluidic fluorimetry of competing homovanillic acid dimerization, Lineweaver-Burk
Assay type: biochemical
Details: GPx immobilized on magnetic nanoparticles; GSH, H2O2, HVA; Tris-HCl 50 mmol/L pH 9, 30 °C; stated non-competitive; listed as at 1 µmol/L inhibitor; printed unit is not a concentration
From the text: stopped-flow microfluidic fluorimetry of competing homovanillic acid dimerization, Lineweaver-Burk on glutathione peroxidase (GPx)

`CC(C)(C)OO` [t-butyl hydroperoxide] was tested, and the “KI” value was 117.09 µmol/L/s.
